Measurements: patent US20210060108A1, “INULA HELENIUM EXTRACTS FOR TREATING AND PREVENTING POLLUTION RELATED DAMAGE” (priority 2017, published 2021)

Assay: Heavy metal (ferrous ion-Ferrozine) chelation assay
Format: biochemical
Details: Fe2+ chelation; calculated based on unpreserved extract dry weight
Protocol: The IC50 refers to the amount of extract required to chelate 50% of the available iron (II) in the assay. The lower the number, the higher the chelation power of an extract.
The ability of Inula extract to act as an anti-pollutant or antagonist of the adverse effects of pollutants and/or toxins in pollutants was further investigated in heavy metal chelation assays. Further to this objective, Inula extracts was tested in in vitro assay to assess its chelator power. In this assay, the ferrous ion is used as a model for heavy metals. The concentration of the ferrous iron-Ferrozine complex was measured by spectrophotometry (absorbance at 562 nm) to determine the Fe 2+-chelating ability of the extract or fraction. The reaction mixture, containing 2 Mm FeCl2 and 5 mM ferrozine was adjusted to 2 ml with bi-distilled water. The mixture was shaken and incubated for 10 min at room temperature. The absorbance of the mixture was measured at 562 nm against a blank EDTA was used as positive control. The choice of an internal reference may be adjusted in accordance with the heavy metal assay performed and such references are known in the art. Chelating power is expressed as an IC50 value (mg/ml) and reflects the concentration at which 50% of the available iron was chelated by, for example, supplemental extract added to the assay mix.

IC50* (mg/ml DRY WEIGHT): 0.038 mg/ml DRY WEIGHT
Structure (SMILES): O=C(O)CN(CCN(CC(=O)O)CC(=O)O)CC(=O)O [EDTA (reference), EDTA]
